From patent US20080194585A1, “Fungicidal Pyrazine Derivatives” (priority 2005, published 2008)
Marks after values point to notes of the source that are not given here.

Tests used:
Plasmopara viticola = experiment: Test D: grape downy mildew, spray after inoculation of grape seedlings; format: in vivo
Excerpt: Upon removal, disease ratings were made. […] A dash (-) indicates no test results.

Phytophthora infestans = experiment: whole plant or invertebrate; format: in vivo
Septoria tritici = experiment: Test J: wheat leaf blotch, preventive spray on wheat seedlings; format: in vivo
Excerpt: A dash (-) indicates no test results.

fusarium graminearium = experiment: Test I: wheat head scab, preventive spray on wheat seedlings
Experimental: (the causal agent of wheat head scab) and incubated in a saturated atmosphere at 20° C. for 72 h, and then moved to a growth chamber at 22° C. for 5 days, after which disease ratings were made.

[1] = test system: Puccinia recondita f. sp. tritici; experiment: Test K: wheat leaf rust, preventive spray on wheat seedlings
Botrytis cinerea = experiment: Test E: tomato botrytis, preventive spray on tomato seedlings
Septoria nodorum = experiment: Test H: wheat glum blotch, preventive spray on wheat seedlings
Experimental: (the causal agent of wheat glum blotch) and incubated in a saturated atmosphere at 20° C. for 48 h, and then moved to a growth chamber at 22° C. for 5 days, after which disease ratings were made.

[2] = test system: Erysiphe graminis f. sp. tritici; experiment: Test L: wheat powdery mildew, preventive spray on wheat seedlings
Sclerotinia sclerotiorum = experiment: Test C: cucumber white mold, preventive spray on cucumber seedlings
Pythium aphanidermatum = experiment: Test A: bluegrass pythium blight, preventive spray on bluegrass seedlings
Rhizoctonia oryzae = experiment: Test G: turf brown patch, preventive spray on creeping bent grass seedlings
Experimental: (the causal agent of turf brown patch) and incubated in a saturated atmosphere at 27° C. for 24 h, and then moved to a growth chamber at 27° C. for 5 days, after which disease ratings were made.

[3] = test system: Colletotrichum orbiculare; experiment: Test B: cucumber Colletotrichum anthracnose, preventive spray on cucumber seedlings

| SMILES | Test D disease control rating (Plasmopara viticola; 40 ppm (*)) | Test F disease control rating (Phytophthora infestans; 40 ppm (*)) | Test J disease control rating (Septoria tritici; 40 ppm (*)) | Test I disease control rating (fusarium graminearium; 40 ppm (*)) | Test K disease control rating ([1]; 40 ppm (*)) | Test E disease control rating (Botrytis cinerea; 40 ppm (*)) | Test H disease control rating (Septoria nodorum; 40 ppm (*)) | Test L disease control rating ([2]; 40 ppm (*)) | Test C disease control rating (Sclerotinia sclerotiorum; 40 ppm (*)) | Test A disease control rating (Pythium aphanidermatum; 40 ppm (*)) | Test G disease control rating (Rhizoctonia oryzae; 40 ppm (*)) | Test B disease control rating ([3]; 40 ppm (*)) | also measured |
| --- | --- | --- | --- | --- | --- | --- | --- | --- | --- | --- | --- | --- | --- |
| CC(C)Cn1c(-c2cc(F)cc(F)c2F)c(Cl)nc(-n2cccn2)c1=O [compound 139] | 0* % | 0* % | 100* % | 0* % | 99* % | 100* % | 97* % | 99* % | 95* % | 0* % | 91* % | 0* % |  |
| COC(=O)c1ccc(-c2c(Cl)nc(-n3cncn3)c(=O)n2CC(C)C)cc1 [compound 146] | 0* % | 0* % | 5* % | 0* % | 0* % | 0* % | 0* % | 0* % | 0* % | 0* % | 0* % | 0* % |  |
| COC(=O)c1ccc(-c2c(Cl)nc(-n3cccn3)c(=O)n2CC(C)C)cc1 [compound 147] |  |  |  |  |  |  |  |  |  |  |  |  | Test D disease control rating (Plasmopara viticola; 200 ppm): 92%; Test F disease control rating (Phytophthora infestans; 200 ppm): 93%; Test J disease control rating (Septoria tritici; 200 ppm): 96%; Test I disease control rating (fusarium graminearium; 200 ppm): 0%; Test K disease control rating ([1]; 200 ppm): 80%; Test E disease control rating (Botrytis cinerea; 200 ppm): 97%; Test H disease control rating (Septoria nodorum; 200 ppm): 0%; Test L disease control rating ([2]; 200 ppm): 0%; Test C disease control rating (Sclerotinia sclerotiorum; 200 ppm): 0%; Test A disease control rating (Pythium aphanidermatum; 200 ppm): 0%; Test G disease control rating (Rhizoctonia oryzae; 200 ppm): 0%; Test B disease control rating ([3]; 200 ppm): 0% |
| CC(C)Cn1c(-c2ccccc2)c(Cl)nc(-n2cccn2)c1=O [compound 172] | 0* % | 57* % | 64* % | 0* % | 0* % | 07* % | 0* % | 0* % | 0* % | 0* % | 41* % | 0* % |  |
| CC(C)Cn1c(-c2ccccc2)c(Cl)nc(-n2cncn2)c1=O [compound 173] | 0* % | 0* % | 45* % | 0* % | 0* % | 0* % | 0* % | 0* % | 0* % | 0* % | 0* % | 0* % |  |
| COc1ccccc1-c1c(Cl)nc(-n2cncn2)c(=O)n1CC(C)C [compound 177] | 0* % | 0* % | 7* % | 0* % | 0* % | 0* % | 0* % | 0* % | 0* % | 0* % | 0* % | 0* % |  |
| CC(C)Cn1c(-c2cccc(F)c2)c(Cl)nc(-n2cncn2)c1=O [compound 230] | 0* % | 0* % | 24* % | 0* % | 0* % | 82* % | 0* % | 0* % | 0* % | 0* % | 0* % | 0* % |  |
| CC(C)Cn1c(-c2cccc(F)c2)c(Cl)nc(-n2cccn2)c1=O [compound 231] | 0* % | 0* % | 89* % | 0* % | 28* % | 99* % | 0* % | 0* % | 0* % | 0* % | 0* % | 0* % |  |
| CC(C)Cn1c(-c2cccc(C(F)(F)F)c2)c(Cl)nc(-n2cncn2)c1=O [compound 232] | 0* % | 0* % | 0* % | 0* % | 0* % | 0* % | 0* % | 0* % | 0* % | 0* % | 0* % | 0* % |  |
| CC(C)Cn1c(-c2cccc(C(F)(F)F)c2)c(Cl)nc(-n2cccn2)c1=O [compound 233] | 0* % | 0* % | 0* % | 0* % | 0* % | 0* % | 0* % | 0* % | 0* % | 0* % | 0* % | 0* % |  |
| CC(C)Cn1c(-c2cccc(Br)c2)c(Cl)nc(-n2cncn2)c1=O [compound 234] | 0* % | 0* % | 0* % | 0* % | 0* % | 0* % | 0* % | 0* % | 0* % | 0* % | 0* % | 0* % |  |
| CC(C)Cn1c(-c2cccnc2)c(Cl)nc(-n2cncn2)c1=O [compound 235] | 0* % | 0* % | 0* % | 0* % | 0* % | 0* % | 0* % | 0* % | 0* % | 45* % | 0* % | 0* % |  |
| CC(C)Cn1c(-c2cccnc2Cl)c(Cl)nc(-n2cncn2)c1=O [compound 236] | 0* % | 0* % | 0* % | 0* % | 0* % | 0* % | 0* % | 0* % | 0* % | 0* % | 0* % | 0* % |  |
| CC(C)Cn1c(-c2cccnc2)c(Cl)nc(-n2cccn2)c1=O [compound 237] | 0* % | 0* % | 24* % | 0* % | 0* % | 0* % | 0* % | 0* % | 0* % | 0* % | 0* % | 0* % |  |
| CC(CF)n1c(-c2c(F)cccc2F)c(Cl)nc(-n2cccn2)c1=O (stereo not drawn) [compound 238] | 0* % | 0* % | 96* % | 0* % | 100* % | 99* % | 98* % | 74* % | 0* % | 0* % | 93* % | 63* % |  |
| Cc1ccn(-c2nc(Br)c(-c3c(F)cccc3F)n(CC(C)C)c2=O)n1 [compound 242] | 0* % | 0* % | 100* % | 0* % | 92* % | 100* % | 94* % | 99* % | 0* % | 0* % | 82* % | 73* % |  |
